Values of other authors as cited in patent publication US4703106A, “Novel polypeptide and process for producing the same” (Mitsubishi Petrochemical Co., Ltd., priority 1984, dated 1987).
Positions of bridges follow the written chain, without caps; N, C: chain ends. No end group written: not given here.

System: Ca^2+ concentration in blood
Details: published as Japanese Provisional Patent Publication No. 123500/1985

Substance: chicken CT: calcitonin extracted and purified from the ultimobranchial glands of chickens, formula (I) (CASLSTCVLGKLSQELHKLQTYPRTDVGAGTP-NH2; disulfide 1-7; ends not checked; UniProt P07660 82-113, looked up)
- biological activity relative to CT's of cyclostomata and fish: equal to or higher than CT's of cyclostomata and fish
